Reference: ChEMBL document CHEMBL1287739, “A novel ring-expanded product with enhanced tyrosinase inhibitory activity from classical Fe-catalyzed oxidation of rosmarinic acid, a potent antioxidative Lamiaceae polyphenol” (Bioorg Med Chem Lett, 2010)

Assays:
[1] = target: T1, Tyrosinase (Agaricus bisporus) (UniProt O42713); assay: Inhibition of mushroom tyrosinase at 0.10 mM
T1 sequence (whole entry): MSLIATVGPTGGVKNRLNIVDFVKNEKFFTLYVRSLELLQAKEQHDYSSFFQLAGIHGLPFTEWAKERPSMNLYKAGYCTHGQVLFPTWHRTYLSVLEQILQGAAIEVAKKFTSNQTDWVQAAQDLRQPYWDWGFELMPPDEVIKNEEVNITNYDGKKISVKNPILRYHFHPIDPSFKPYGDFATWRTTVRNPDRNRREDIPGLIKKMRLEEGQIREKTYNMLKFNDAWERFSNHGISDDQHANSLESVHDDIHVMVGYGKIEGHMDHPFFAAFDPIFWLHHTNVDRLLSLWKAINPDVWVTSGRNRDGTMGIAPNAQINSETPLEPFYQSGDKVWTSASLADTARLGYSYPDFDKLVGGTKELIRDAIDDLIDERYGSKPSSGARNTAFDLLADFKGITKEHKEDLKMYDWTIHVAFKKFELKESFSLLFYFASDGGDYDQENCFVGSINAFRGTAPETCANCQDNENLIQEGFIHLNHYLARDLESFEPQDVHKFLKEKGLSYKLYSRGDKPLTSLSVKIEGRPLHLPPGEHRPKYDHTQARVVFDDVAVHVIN

Tyrosinase = target: T2, Tyrosinase (Agaricus bisporus, UniProt O42713); assay: Inhibition of mushroom tyrosinase
T2 sequence (O42713 whole entry): T1 sequence (whole entry)

[2] = target: T1, Tyrosinase (Agaricus bisporus); assay: Inhibition of mushroom tyrosinase at 10.0 mM
[3] = target: T1, Tyrosinase (Agaricus bisporus); assay: Inhibition of mushroom tyrosinase at 3.00 mM
[4] = target: T1, Tyrosinase (Agaricus bisporus); assay: Inhibition of mushroom tyrosinase at 1.00 mM

Row | inhibition [1] | IC50 (Tyrosinase) | inhibition [2] | inhibition [3] | inhibition [4] | SMILES
1 | 52.5% | 80 µM |  |  |  | CCOc1cc(=O)c(C[C@@H](OC(=O)/C=C/c2ccc(O)c(O)c2)C(=O)O)coc1=O
2 |  | 250 µM | 93.6% | 69.8% | 40.7% | O=C(/C=C/c1ccc(O)c(O)c1)O[C@H](Cc1ccc(O)c(O)c1)C(=O)O [ROSMARINIC ACID]
